Source: patent US9403810B2, “Carboxamide derivatives” (Novartis AG, priority 2014, dated 2016)

What follows are compounds tested against Smurf-1 (Homo sapiens (Human), UniProt Q9HCE7) (assay: HECT E3 ligase autoubiquitinylation TR-FRET assay (Smurf-1)). Settings: 8-point dose-response curve, 3 nM to 10 uM; 45 min incubation.
Type: biochemical
Description: To determine the HECT E3 ligase selectivity of the compounds, a panel of biochemical HECT E3 ligase autoubiquitinylation assays was employed (Smurf-1, Smurf-2, WWP1, WWP2, ITCH, Nedd4, Nedd4L and E6AP). The conjugation of ubiquitin to a protein substrate is a multistep process. In an initial ATP-requiring step, a thioester bond is formed between the carboxyl terminus of ubiquitin and an internal cystein residue of the ubiquitin-activating enzyme (E1). Activated ubiquitin is then transferred to a specific cystein residue of an ubiquitin-conjugating enzyme (E2). E2s donate ubiquitin to a HECT E3 ligase (E3) from which it is transferred to the substrate protein. HECT E3 ligases can auto-ubiquitinylate. This event is detected in the TR-FRET (Time-Resolved Fluorescence Resonance Energy Transfer) assay used in this panel. The reaction mix contains E1, E2, tagged-E3, biotin-conjugated ubiquitin, the compound and ATP in a suitable buffer and is incubated for 45 minutes to allow auto-ubiquitinylation of the E3 ligase. To measure the extent of ubiquitinylated E3 ligase by TR-FRET, the donor fluorophore Europium cryptate (Eu3+ cryptate), conjugated to streptavidin which subsequently binds to biotinylated ubiquitin, and the modified allophycocyanin XL665 (HTRF® primary acceptor fluorophore) coupled to a tag-specific antibody (HA, His or GST), which recognizes the respective E3 ligase fusion proteins, are added after the reaction is complete. When these two fluorophores are brought together by a bimolecular interaction (in this case ubiquitinylation of the E3 ligase), a portion of the energy captured by the Cryptate during excitation is released through fluorescence emission at 620 nm, while the remaining energy is transferred to XL665. This energy is then released by XL665 as specific fluorescence at 665 nm. Light at 665 nm is emitted only through FRET with Europium.
Test and reference compounds are prepared at 180× [final] in 90% DMSO, and diluted 1:3 in 90% DMSO.
For the biochemical assay panel, 50 nl of the test compounds, reference compounds and buffer/DMSO control are transferred to the respective wells of a 384-well white GREINER “SMALL VOLUME” PS plate. The assay panel is run at room temperature on a Biomek FX liquid handling workstation. To the assay plates containing 50 nl compound or control solutions in 90% DMSO, 4.5 ul of E3 ligase solution were added per well, followed by 4.5 ul of the pre-incubated E1/E2/Ub mix or the pre-diluted ubiquitin (LOW control). Plates are shaken vigorously after each addition. In this assay the compound concentrations range from 3 nM to 10 uM in an 8-point dose-response curve.
After an incubation time of 45 min in the dark, the plates are transferred into the Pherastar fluorescence reader to measure the TR-FRET signal.

Sequence of Smurf-1 (Q9HCE7 whole entry): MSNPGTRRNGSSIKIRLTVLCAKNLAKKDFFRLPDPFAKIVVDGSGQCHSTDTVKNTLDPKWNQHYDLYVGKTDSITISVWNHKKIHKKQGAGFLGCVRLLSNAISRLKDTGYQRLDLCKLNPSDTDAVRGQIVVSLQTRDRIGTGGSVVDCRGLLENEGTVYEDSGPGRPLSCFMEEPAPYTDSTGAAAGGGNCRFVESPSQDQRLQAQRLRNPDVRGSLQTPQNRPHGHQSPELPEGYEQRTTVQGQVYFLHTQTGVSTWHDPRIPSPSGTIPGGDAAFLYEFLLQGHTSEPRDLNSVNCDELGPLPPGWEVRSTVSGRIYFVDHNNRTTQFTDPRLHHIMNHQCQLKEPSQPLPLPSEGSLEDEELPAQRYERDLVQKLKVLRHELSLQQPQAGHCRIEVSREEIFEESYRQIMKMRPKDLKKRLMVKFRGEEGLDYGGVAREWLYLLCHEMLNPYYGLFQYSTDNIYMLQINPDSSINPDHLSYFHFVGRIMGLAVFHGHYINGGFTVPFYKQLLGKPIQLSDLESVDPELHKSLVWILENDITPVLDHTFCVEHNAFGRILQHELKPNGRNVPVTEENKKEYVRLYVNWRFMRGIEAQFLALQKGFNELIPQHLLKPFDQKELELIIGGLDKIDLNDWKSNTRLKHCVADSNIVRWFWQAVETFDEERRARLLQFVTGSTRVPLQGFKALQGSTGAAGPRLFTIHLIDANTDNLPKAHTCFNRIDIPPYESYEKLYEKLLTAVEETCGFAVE

IC50	SMILES
0.0009 µM	Cc1c(C(=O)Nc2c(C)n(C)n(C3CCCCC3)c2=O)noc1C1=CCC(C)(C)CC1 [Example 2.2, N-(2-Cyclohexyl-1,5-dimethyl-3-oxo-2,3-dihydro-1H-pyrazol-4-yl)-5-(4,4-dimethylcyclohex-1-en-1-yl)-4-methylisoxazole-3-carboxamide]
0.006 µM	Cc1c(C(=O)Nc2c(C)n(C)n(C3CCCCC3)c2=O)noc1C1=CCC(C)(C)C1 [Example 3, N-(2-Cyclohexyl-1,5-dimethyl-3-oxo-2,3-dihydro-1H-pyrazol-4-yl)-5-(4,4-dimethylcyclopent-1-en-1-yl)-4-methylisoxazole-3-carboxamide]
0.1 µM	Cc1c(C(=O)Nc2c(C)n(C)n(C3CCCCC3)c2=O)noc1C1=CCC2(CCOC2)CC1 (stereo not drawn) [Example 4, N-(2-Cyclohexyl-1,5-dimethyl-3-oxo-2,3-dihydro-1H-pyrazol-4-yl)-4-methyl-5-(2-oxaspiro[4.5]dec-7-en-8-yl)isoxazole-3-carboxamide]
0.31 µM	Cc1c(C(=O)Nc2c(C)n(C)n(C3CCCCC3)c2=O)noc1C1=CCC(OC(C)C)CC1 (stereo not drawn) [Example 5, N-(2-Cyclohexyl-1,5-dimethyl-3-oxo-2,3-dihydro-1H-pyrazol-4-yl)-5-(4-isopropoxycyclohex-1-en-1-yl)-4-methylisoxazole-3-carboxamide]
0.0057 µM	Cc1c(C(=O)Nc2c(C)n(C)n(C3CCCCC3)c2=O)noc1C1CCC(C)(C)CC1 [Example 6, N-(2-Cyclohexyl-1,5-dimethyl-3-oxo-2,3-dihydro-1H-pyrazol-4-yl)-5-(4,4-dimethylcyclohexyl)-4-methylisoxazole-3-carboxamide]
0.023 µM	Cc1c(C(=O)Nc2c(C)n(C)n(C3CCCCC3)c2=O)noc1C1CCC(C)(C)C1 (stereo not drawn) [Example 6.1, N-(2-Cyclohexyl-1,5-dimethyl-3-oxo-2,3-dihydro-1H-pyrazol-4-yl)-5-(3,3-dimethylcyclopentyl)-4-methylisoxazole-3-carboxamide]
0.019 µM	Cc1c(C(=O)Nc2c(C)n(C)n(C3CCCCC3)c2=O)noc1CCC(C)(C)C [Example 7, N-(2-Cyclohexyl-1,5-dimethyl-3-oxo-2,3-dihydro-1H-pyrazol-4-yl)-5-(3,3-dimethylbutyl)-4-methylisoxazole-3-carboxamide]
0.046 µM	Cc1c(C(=O)Nc2c(C)n(C)n(C3CCCCC3)c2=O)noc1/C=C\C(C)(C)C [Example 8, (Z)—N-(2-Cyclohexyl-1,5-dimethyl-3-oxo-2,3-dihydro-1H-pyrazol-4-yl)-5-(3,3-dimethylbut-1-en-1-yl)-4-methylisoxazole-3-carboxamide]
0.058 µM	Cc1c(C(=O)Nc2c(C)n(C)n(C3CCCCC3)c2=O)noc1/C=C/C(C)(C)C [Example 9, (E)-N-(2-Cyclohexyl-1,5-dimethyl-3-oxo-2,3-dihydro-1H-pyrazol-4-yl)-5-(3,3-dimethylbut-1-en-1-yl)-4-methylisoxazole-3-carboxamide]
0.05 µM	Cc1c(C(=O)Nc2c(C)n(C)n(C3CCCCC3)c2=O)noc1C1CCCCC1 [Example 10, 5-Cyclohexyl-N-(2-cyclohexyl-1,5-dimethyl-3-oxo-2,3-dihydro-1H-pyrazol-4-yl)-4-methylisoxazole-3-carboxamide]
0.42 µM	Cc1c(C(=O)Nc2c(C)n(C)n(C3CCCCC3)c2=O)noc1C1CCC2(CC1)OCCO2 [Example 11, N-(2-Cyclohexyl-1,5-dimethyl-3-oxo-2,3-dihydro-1H-pyrazol-4-yl)-4-methyl-5-(1,4-dioxaspiro[4.5]decan-8-yl)isoxazole-3-carboxamide]
0.18 µM	Cc1c(C(=O)Nc2c(C)n(C)n(C3CCCCC3)c2=O)noc1[C@@H]1OCC(C)(C)O[C@H]1C [Example 20, N-(2-Cyclohexyl-1,5-dimethyl-3-oxo-2,3-dihydro-1H-pyrazol-4-yl)-4-methyl-5-((2R,3S)-3,5,5-trimethyl-1,4-dioxan-2-yl)isoxazole-3-carboxamide]
0.63 µM	Cc1c(C(=O)Nc2c(C)n(C)n(C3CCCCC3)c2=O)noc1C1CC(Br)C(C)CO1 (stereo not drawn) [Example 21.1, 5-(4-Bromo-5-methyltetrahydro-2H-pyran-2-yl)-N-(2-cyclohexyl-1,5-dimethyl-3-oxo-2,3-dihydro-1H-pyrazol-4-yl)-4-methylisoxazole-3-carboxamide]
0.49 µM	CC1=CCC(c2onc(C(=O)Nc3c(C)n(C)n(C4CCCCC4)c3=O)c2C)OC1 (stereo not drawn) [Example 21.2, N-(2-cyclohexyl-1,5-dimethyl-3-oxo-2,3-dihydro-1H-pyrazol-4-yl)-4-methyl-5-(5-methyl-3,6-dihydro-2H-pyran-2-yl)isoxazole-3-carboxamide]
0.58 µM	Cc1c(C(=O)Nc2c(C)n(C)n(C3CCCCC3)c2=O)noc1C1OCC(C)(C)CO1 [Example 26, N-(2-Cyclohexyl-1,5-dimethyl-3-oxo-2,3-dihydro-1H-pyrazol-4-yl)-5-(5,5-dimethyl-1,3-dioxan-2-yl)-4-methylisoxazole-3-carboxamide]
